Results as given in patent US20060233738A1, “Composition for promoting production of type 1 collagen and/or elastin” (priority 2003, published 2006).

How the values were obtained:
Type in all cases: cell-based
[1] = test system: type I collagen; test: Promotion of type I collagen production in normal human skin fibroblast cells (western blotting, image analysis); conditions: NFB cells, 24 hours
Description: (§1) Each compound was dissolved in DMSO to produce a stock solution, and an appropriate amount of each stock solution was added to a culture solution and applied to cells. By following the same procedure, a stock solution was prepared by dissolving silymarin (silymarin group manufactured by Sigma-Aldrich) in the aforementioned DMSO, and an appropriate amount of the stock solution was added to a culture solution to check the effect of adding silymarin.
(§2) Normal human skin fibroblast cells (hereinafter referred to as “NFB”), provided as CCD1059 (purchased from Dainippon Pharmaceutical), were cultured in a skin fibroblast cell culture medium (FGM manufactured by Sanko Junyaku) at 37° C. in a 5% CO2 incubator. FGM was prepared by adding a human skin fibroblast cell growth factor (1 μg/ml), insulin ([…]), gentamycin (50 μg/ml) and amphotericin B (50 μg/ml) to a base fibroblast cell culture medium. This test used cells whose passage number was 3 to 7. […]
(§3) Protein in the sample was separated by SDS-PAGE and transferred to a nitrocellulose membrane. […] The obtained substance was washed, and then detected using ECL plus western blotting detection reagent (manufactured by Amersham Biosciences). The detected band was scanned using an image scanner (manufactured by Amersham Biosciences) and analyzed using image master software to produce numerical data.

[2] = test system: elastin; test: Promotion of elastin production in normal human skin fibroblast cells (western blotting, image analysis); conditions: NFB cells, 24 hours
Description: as §1, §2, §3

[3] = test system: type I collagen; test: Promotion of type I collagen production in a three-dimensional human skin model (TESTSKIN LSE-high); conditions: concentration 0.05% in dipropylene glycol, 2 x 24 hours
From the text: (§4) Three-dimensional human skin models are widely used in safety evaluations and effectiveness evaluations as pseudo human skins. In this evaluation, TESTSKIN (LSE-high) (manufactured by Toyobo) was used as a three-dimensional human skin model, and cultured in accordance with the protocol specified in the attached document. Silybum marianum extract containing 70% silymarin (manufactured by Indina), soybean lecithin (manufactured by Wako Pure Chemical Industries) and retinoic acid (all-trans-retinoic acid manufactured by Wako Pure Chemical Industries) were dissolved to respective concentrations in dipropylene glycol (manufactured by Wako Pure Chemical Industries). […]
(§5) Next, 60 μl of each tested substance was added to tissues in an assay ring and the tissues were cultured for 24 hours. […] Protein in the sample was determined using a DC protein assay kit (manufactured by Bio-Rad Laboratories) based on the Lowry method (Non-patent Literature 11), and 20 mM Tris-HCl (pH 7.5) was added to achieve 2 μg/μl. […]
The obtained sample was used to evaluate the property to promote type I collagen production using the western blotting method. […] The obtained substance was washed, and then detected using ECL plus western blotting detection reagent (manufactured by Amersham Biosciences). […]

[4] = test system: elastin; test: Promotion of elastin production in a three-dimensional human skin model (TESTSKIN LSE-high); conditions: concentration 0.05% in dipropylene glycol, 2 x 24 hours
From the text: as §4, §5
In the same manner as described in the aforementioned evaluation of the property to promote type I collagen production in a three-dimensional human skin model, the property to promote elastin production was evaluated using a three-dimensional human skin model.

**Q.** `CC1=C(/C=C/C(C)=C/C=C/C(C)=C/C(=O)O)C(C)(C)CCC1` [Retinoic acid, all-trans-retinoic acid] was tested. Which “Ratio to untreated control (full-length type I collagen)” value ([1]; treated concentration 250 nM) did it give?
**A.** Its value is 2.0.

**Q.** And the “Ratio to untreated control (full-length type I collagen)” value ([1]; treated concentration 500 nM)?
**A.** The value was 1.4.

**Q.** And the “Ratio to untreated control (full-length elastin)” value ([2]; treated concentration 250 nM)?
**A.** The value was 2.8.

**Q.** What about the “Ratio to untreated control (full-length elastin)” value ([2]; treated concentration 500 nM) of the same compound?
**A.** The value was 1.4.

**Q.** And the “Relative expression level (full-length type I collagen)” value [3]?
**A.** Its value is 2.0.

**Q.** And the “Relative expression level (full-length elastin)” value [4]?
**A.** The value was 3.3.
